According to publication PMC9403976, “Elucidating the path to Plasmodium prolyl-tRNA synthetase inhibitors that overcome halofuginone resistance” (Nature Communications, 2022):
Values joined by “and” are separate entries in the source; they are usually repeats but may differ in a detail not shown here. Equal entries are not always repeated.

Assays:
[1] = test system: halofuginone-induced P. falciparum (elevated proline homeostasis); test: P. falciparum ABS growth assay, SYBR Green, 72 h, halofuginone-induced parasites; type: cell-based, Plasmodium falciparum; conditions: for parasite growth, replicate wells (Fig 1b): Halofuginone-Induced
Summary of the method: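 Growth inhibition of the resistant and induced Dd2 lines is measured over 72 h in triplicate dose-response, starting at 1% parasitemia and 1% hematocrit. SYBR Green 1 staining gives the fluorescence readout, normalized between 10 μM dihydroartemisinin and no-compound wells.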

P. falciparum Dd2-2D4 = test: P. falciparum asexual blood stage (ABS) growth assay, SYBR Green, 72 h, wild-type parasites; type: cell-based, Plasmodium falciparum; conditions: for ABS growth dose-response, normalized signal (Replicates 1-3) / parasite growth, replicate wells (Fig 1b): Dd2-2D4
HsProRS = HsProRS (Homo sapiens, UniProt P07814); test: TR-FRET ligand displacement assay with tracer MAT379 (CoraFluor-1-Halo and anti-His6 antibody formats); type: binding; design: made in house; host or cells: E. coli SoluBL-21; conditions: for TR-FRET dose-response, normalized signal (SI Fig 11): individual replicates; for TR-FRET dose-response, normalized signal (SI Fig 11) / normalized TR-FRET ligand displacement signal, dose-response replicates (SI Fig 6) / normalized TR-FRET signal (dose-response replicates): listed as NCP26 (3); for normalized TR-FRET signal (dose-response replicates): SI Fig 15
[2] = Log[inhibitor] (M) -6.806, listed as NCP26 (3)
[3] = Log[inhibitor] (M) -7.107, listed as NCP26 (3)
[4] = Log[inhibitor] (M) -7.408, listed as NCP26 (3)
[5] = Log[inhibitor] (M) -7.709, listed as NCP26 (3)

HsProRS, sequence (P07814 996-1512): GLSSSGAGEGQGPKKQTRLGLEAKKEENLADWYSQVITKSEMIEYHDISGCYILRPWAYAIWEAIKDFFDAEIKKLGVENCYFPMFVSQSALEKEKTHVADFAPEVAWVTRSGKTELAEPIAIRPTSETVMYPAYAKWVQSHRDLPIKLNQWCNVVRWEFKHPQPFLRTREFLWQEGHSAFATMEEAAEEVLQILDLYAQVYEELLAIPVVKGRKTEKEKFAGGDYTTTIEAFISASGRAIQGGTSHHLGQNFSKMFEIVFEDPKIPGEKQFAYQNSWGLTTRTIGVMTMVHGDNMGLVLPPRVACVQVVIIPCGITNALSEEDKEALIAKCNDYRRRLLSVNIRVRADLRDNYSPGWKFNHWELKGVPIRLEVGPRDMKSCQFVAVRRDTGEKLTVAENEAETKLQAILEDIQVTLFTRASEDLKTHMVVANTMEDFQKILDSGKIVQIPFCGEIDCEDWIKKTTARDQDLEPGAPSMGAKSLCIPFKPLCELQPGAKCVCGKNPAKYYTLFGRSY

## O=C(NC1Cc2ccccc2C1)c1nccnc1NC(=O)N1CCCCC1 [NCP26]
[1]; Log[inhibitor] (M) -4.699, listed as NCP26 (3)
  parasite growth, replicate wells (Fig 1b): 0.00E+00 and -1.00E+00 and -2.00E+00
[1]; Log[inhibitor] (M) -5.000, listed as NCP26 (3)
  parasite growth, replicate wells (Fig 1b): 1.00E+00 (2×) and -1.00E+00
[1]; Log[inhibitor] (M) -5.301, listed as NCP26 (3)
  parasite growth, replicate wells (Fig 1b): -1.00E+00 (2×) and 7.00E+00
[1]; Log[inhibitor] (M) -5.602, listed as NCP26 (3)
  parasite growth, replicate wells (Fig 1b): 1.00E+00 and 5.00E+00 and 0.00E+00
[1]; Log[inhibitor] (M) -5.903, listed as NCP26 (3)
  parasite growth, replicate wells (Fig 1b): 0.00E+00 and -1.00E+00 (2×)
[1]; Log[inhibitor] (M) -6.204
  parasite growth, replicate wells (Fig 1b): -2.00E+00
  dose-response value, Replicates 1-3 (SI Fig 2e): -2.0
[1]; Log[inhibitor] (M) -6.505, listed as NCP26 (3)
  parasite growth, replicate wells (Fig 1b): 0.00E+00 (2×) and -1.00E+00
[1]; [2]
  parasite growth, replicate wells (Fig 1b): 1.80E+01 (2×) and 1.90E+01
[1]; [3]
  parasite growth, replicate wells (Fig 1b): 9.50E+01 and 8.90E+01 and 9.10E+01
[1]; [4]
  parasite growth, replicate wells (Fig 1b): 1.05E+02 and 1.12E+02 and 1.07E+02
[1]; [5]
  parasite growth, replicate wells (Fig 1b): 1.09E+02 and 1.08E+02 and 1.10E+02
[1]; Log[inhibitor] (M) -8.010, listed as NCP26 (3)
  parasite growth, replicate wells (Fig 1b): 9.90E+01 and 1.01E+02 and 1.04E+02
P. falciparum Dd2-2D4; Log[inhibitor] (M) -4.699
  ABS growth dose-response, normalized signal (Replicates 1-3): 0
  parasite growth, replicate wells (Fig 1b): 0.00E+00
P. falciparum Dd2-2D4; Log[inhibitor] (M) -5.000
  ABS growth dose-response, normalized signal (Replicates 1-3): 0
  parasite growth, replicate wells (Fig 1b): 0.00E+00
P. falciparum Dd2-2D4; Log[inhibitor] (M) -5.301
  ABS growth dose-response, normalized signal (Replicates 1-3): 0
  parasite growth, replicate wells (Fig 1b): 0.00E+00
P. falciparum Dd2-2D4; Log[inhibitor] (M) -5.602
  ABS growth dose-response, normalized signal (Replicates 1-3): 0
  parasite growth, replicate wells (Fig 1b): 0.00E+00
P. falciparum Dd2-2D4; Log[inhibitor] (M) -5.903
  ABS growth dose-response, normalized signal (Replicates 1-3): 0
  parasite growth, replicate wells (Fig 1b): 0.00E+00
P. falciparum Dd2-2D4; Log[inhibitor] (M) -6.204
  ABS growth dose-response, normalized signal (Replicates 1-3): 0
  parasite growth, replicate wells (Fig 1b): 0.00E+00
P. falciparum Dd2-2D4; Log[inhibitor] (M) -6.505
  ABS growth dose-response, normalized signal (Replicates 1-3): 0
  parasite growth, replicate wells (Fig 1b): 0.00E+00
P. falciparum Dd2-2D4; [2]
  parasite growth, replicate wells (Fig 1b): 6.00E+00 (2×) and 5.00E+00
P. falciparum Dd2-2D4; [3]
  parasite growth, replicate wells (Fig 1b): 3.30E+01 and 2.80E+01 and 3.00E+01
P. falciparum Dd2-2D4; [4]
  parasite growth, replicate wells (Fig 1b): 9.50E+01 and 9.40E+01 and 9.90E+01
P. falciparum Dd2-2D4; [5]
  parasite growth, replicate wells (Fig 1b): 1.09E+02 and 1.04E+02 and 1.02E+02
P. falciparum Dd2-2D4; Log[inhibitor] (M) -8.010
  ABS growth dose-response, normalized signal (Replicates 1-3): 101
  parasite growth, replicate wells (Fig 1b): 1.01E+02
P. falciparum Dd2-2D4; Plasmodium falciparum, DD2, SI Fig 16b, values on -log scale, read-out: ABS - Dd2-2D4 (converted)
  EC50: 67.5 nM
HsProRS; 100 μM proline vs no substrates
  fold increased affinity in the presence of proline: > 750 fold
HsProRS; HsProRS (KD [nM]) + ATP, 500 μM ATP, 250 nM MAT379
  Kd: 678 nM
HsProRS; HsProRS (KD [nM]) −, absence of substrates, 250 nM MAT379
  Kd: 271 nM
HsProRS; HsProRS - best Kd, SI Fig 16a, values on -log scale
  Kd: 0.351 nM
HsProRS; Log[inhibitor] (M) -5.000
  TR-FRET dose-response, normalized signal (SI Fig 11): 3.90E-02 and 5.46E-02 and 7.26E-02
  normalized TR-FRET ligand displacement signal, dose-response replicates (SI Fig 6): -7.74E-03 and 7.74E-03
HsProRS; Log[inhibitor] (M) -5.301
  TR-FRET dose-response, normalized signal (SI Fig 11): 8.66E-02 (2×) and 6.05E-02
  normalized TR-FRET ligand displacement signal, dose-response replicates (SI Fig 6): 1.56E-02 and 1.09E-02
HsProRS; Log[inhibitor] (M) -5.601
  TR-FRET dose-response, normalized signal (SI Fig 11): 1.54E-01 and 1.44E-01 and 1.56E-01
  normalized TR-FRET ligand displacement signal, dose-response replicates (SI Fig 6): 1.19E-01 and 1.01E-01
HsProRS; Log[inhibitor] (M) -5.902
  normalized TR-FRET ligand displacement signal, dose-response replicates (SI Fig 6): 2.03E-01 and 2.10E-01
HsProRS; Log[inhibitor] (M) -5.904
  TR-FRET dose-response, normalized signal (SI Fig 11): 2.33E-01 and 2.21E-01 and 2.09E-01
HsProRS; Log[inhibitor] (M) -6.203
  normalized TR-FRET ligand displacement signal, dose-response replicates (SI Fig 6): 4.13E-01 and 3.59E-01
HsProRS; Log[inhibitor] (M) -6.208
  TR-FRET dose-response, normalized signal (SI Fig 11): 3.61E-01 and 2.97E-01 and 3.35E-01
HsProRS; Log[inhibitor] (M) -6.509
  TR-FRET dose-response, normalized signal (SI Fig 11): 4.65E-01 and 4.29E-01 and 4.89E-01
HsProRS; Log[inhibitor] (M) -6.513
  normalized TR-FRET ligand displacement signal, dose-response replicates (SI Fig 6): 6.17E-01 and 6.51E-01
HsProRS; Log[inhibitor] (M) -6.796
  TR-FRET dose-response, normalized signal (SI Fig 11): 6.56E-01 and 6.91E-01 and 6.47E-01
  normalized TR-FRET ligand displacement signal, dose-response replicates (SI Fig 6): 7.87E-01 and 8.56E-01
HsProRS; Log[inhibitor] (M) -7.108
  TR-FRET dose-response, normalized signal (SI Fig 11): 8.29E-01 and 7.76E-01 and 7.86E-01
  normalized TR-FRET ligand displacement signal, dose-response replicates (SI Fig 6): 8.95E-01 and 9.07E-01
HsProRS; Log[inhibitor] (M) -7.405
  normalized TR-FRET ligand displacement signal, dose-response replicates (SI Fig 6): 9.57E-01 and 8.55E-01
HsProRS; Log[inhibitor] (M) -7.409
  TR-FRET dose-response, normalized signal (SI Fig 11): 9.33E-01 and 8.84E-01 and 8.96E-01
HsProRS; Log[inhibitor] (M) -7.710
  TR-FRET dose-response, normalized signal (SI Fig 11): 1.01E+00 and 8.77E-01 and 8.78E-01
HsProRS; Log[inhibitor] (M) -7.714
  normalized TR-FRET ligand displacement signal, dose-response replicates (SI Fig 6): 1.05E+00 and 9.22E-01
HsProRS; Log[inhibitor] (M) -8.000
  TR-FRET dose-response, normalized signal (SI Fig 11): 9.74E-01 and 9.83E-01 and 9.34E-01
  normalized TR-FRET ligand displacement signal, dose-response replicates (SI Fig 6): 1.02E+00 and 1.00E+00
HsProRS; Log[inhibitor] (M) -8.013
  normalized TR-FRET signal (Fig 2j): 3.80E-01 and 4.41E-01 and 3.90E-01
HsProRS; Log[inhibitor] (M) -8.301
  TR-FRET dose-response, normalized signal (SI Fig 11): 1.04E+00 and 9.70E-01 and 9.69E-01
HsProRS; Log[inhibitor] (M) -8.314
  normalized TR-FRET signal (Fig 2j): 5.85E-01 and 7.34E-01 and 6.18E-01
HsProRS; Log[inhibitor] (M) -8.331
  normalized TR-FRET ligand displacement signal, dose-response replicates (SI Fig 6): 1.04E+00 and 1.00E+00
  normalized TR-FRET signal (dose-response replicates): 9.93E-01 and 9.01E-01 and 8.86E-01
HsProRS; Log[inhibitor] (M) -8.574
  normalized TR-FRET ligand displacement signal, dose-response replicates (SI Fig 6): 1.00E+00 and 9.98E-01
HsProRS; Log[inhibitor] (M) -8.602
  TR-FRET dose-response, normalized signal (SI Fig 11): 1.02E+00 and 9.93E-01 and 9.50E-01
HsProRS; Log[inhibitor] (M) -8.615
  normalized TR-FRET signal (Fig 2j): 7.72E-01 and 8.28E-01 and 8.16E-01
HsProRS; Log[inhibitor] (M) -8.916
  normalized TR-FRET signal (Fig 2j): 9.01E-01 and 9.63E-01 and 9.82E-01
HsProRS; Log[inhibitor] (M) -9.000
  TR-FRET dose-response, normalized signal (SI Fig 11): 9.79E-01 and 9.82E-01 and 1.02E+00
HsProRS; Log[inhibitor] (M) -9.217
  normalized TR-FRET signal (Fig 2j): 9.20E-01 and 1.06E+00
HsProRS; Log[inhibitor] (M) -9.301
  TR-FRET dose-response, normalized signal (SI Fig 11): 1.04E+00 and 1.00E+00 and 9.65E-01
HsProRS; Log[inhibitor] (M) -4.99976
  normalized TR-FRET signal (dose-response replicates): 2.27E-01 and 3.58E-01 and 2.56E-01
HsProRS; Log[inhibitor] (M) -5.3009
  normalized TR-FRET signal (dose-response replicates): 5.51E-01 and 1.03E-01 and 3.27E-01
HsProRS; Log[inhibitor] (M) -5.60199
  normalized TR-FRET signal (dose-response replicates): 6.05E-01 and 4.05E-01 and 4.39E-01
HsProRS; Log[inhibitor] (M) -5.90248
  normalized TR-FRET signal (dose-response replicates): 4.42E-01 and 6.91E-01 and 6.09E-01
HsProRS; Log[inhibitor] (M) -6.20323
  normalized TR-FRET signal (dose-response replicates): 4.30E-01 and 8.03E-01 and 7.35E-01
HsProRS; Log[inhibitor] (M) -6.51347
  normalized TR-FRET signal (dose-response replicates): 8.28E-01 and 6.81E-01 and 6.14E-01
HsProRS; Log[inhibitor] (M) -6.79595
  normalized TR-FRET signal (dose-response replicates): 1.04E+00 and 6.14E-01 and 1.23E+00
HsProRS; Log[inhibitor] (M) -7.10794
  normalized TR-FRET signal (dose-response replicates): 8.29E-01 and 9.88E-01 and 1.04E+00
HsProRS; Log[inhibitor] (M) -7.40526
  normalized TR-FRET signal (dose-response replicates): 1.19E+00 and 8.56E-01 and 7.59E-01
HsProRS; Log[inhibitor] (M) -7.7137
  normalized TR-FRET signal (dose-response replicates): 9.63E-01 and 9.49E-01 and 1.37E+00
HsProRS; Log[inhibitor] (M) -8
  normalized TR-FRET signal (dose-response replicates): 8.45E-01 and 9.90E-01 and 8.83E-01
HsProRS; Log[inhibitor] (M) -8.57403
  normalized TR-FRET signal (dose-response replicates): 9.84E-01 and 9.89E-01 and 1.13E+00
HsProRS; Log[inhibitor] (M) -8.87506
  normalized TR-FRET signal (dose-response replicates): 9.25E-01 and 9.80E-01 and 7.66E-01
